Measurements published in US20250333397A1 (REMIX THERAPEUTICS INC., priority 2021, published 2025).
Where two headings read alike, the source gives them in different places.

Legend:
Type in all cases: cell-based, human
SMN2 mRNA = assay: RT-qPCR splicing assay panel, SMN2 canonical junction (CJ) mRNA; settings: Homo sapiens, Table 4B; gene panel; read-out: SMN2 (IC50, decrease in CJ mRNA levels)
Summary of the method: (§1)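 Junction-specific RT-qPCR read the canonical exon-exon junction and the compound-induced alternative-exon junction, normalized to GAPDH, GUSB or PPIA and then to DMSO (2^(-ΔΔCt)). Input was lysate from A673 or K562 cells exposed for 24 h to compound up to 10 uM.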

MYB mRNA = assay: RT-qPCR splicing assay, MYB canonical (CJ) and alternative (AJ) junction mRNA; settings: Homo sapiens; for AC50: read-out: MYB AJ (AC50, increase in AJ mRNA)
Summary of the method: as §1

HTT mRNA = assay: RT-qPCR splicing assay, HTT canonical (CJ) and alternative (AJ) junction mRNA; settings: Homo sapiens; for AC50: read-out: HTT AJ (AC50, increase in AJ mRNA)
Summary of the method: as §1

Target C mRNA = assay: RT-qPCR splicing assay panel, Target C canonical junction (CJ) mRNA; settings: Homo sapiens, Table 4B; gene panel; read-out: Target C (IC50, decrease in CJ mRNA levels)
Summary of the method: as §1

[1] = 24 h, Table 3B, A673 or K562 cells, 24 h treatment
[2] = 24 h, Table 3B, A673 or K562 cells, 24 h treatment, read-out: MYB CJ (IC50, decrease in CJ mRNA)
[3] = Table 4B, gene panel, read-out: MYB (IC50, decrease in CJ mRNA levels)
[4] = 24 h, Table 3B, A673 or K562 cells, 24 h treatment, read-out: HTT CJ (IC50, decrease in CJ mRNA)
[5] = Table 4B, gene panel, read-out: HTT (IC50, decrease in CJ mRNA levels)

Structure (SMILES) | IC50 (SMN2 mRNA) [nM] | IC50 (MYB mRNA; [2]) [nM] | IC50 (MYB mRNA; [3]) [nM] | IC50 (HTT mRNA; [4]) [nM] | IC50 (HTT mRNA; [5]) [nM] | IC50 (Target C mRNA) [nM] | AC50 (MYB mRNA; [1]) [nM] | AC50 (HTT mRNA; [1]) [nM]
Cc1ccc2cc(-c3ccc(N4CCC(NC(C)(C)C)C4)nn3)c(O)cc2n1 (centres unmarked) [Compound 817] | 1000 to 10000 | > 10000 | > 10000 | > 10000 | > 10000 | > 10000 | > 10000 | > 10000
Cc1ncc2cc(-c3ccc(N4CCC(NC(C)(C)C)C4)nn3)c(O)cc2n1 (centres unmarked) [Compound 818] | > 10000 | > 10000 | > 10000 | > 10000 | > 10000 | > 10000 | > 10000 | > 10000
COc1cc2cc(-c3ccc(N4CCC(NC(C)(C)C)C4)nn3)c(O)cc2nn1 (centres unmarked) [Compound 819] | 100 to 1000 | 1000 to 10000 | 1000 to 10000 | 1000 to 10000 | 1000 to 10000 | 1000 to 10000 | 1000 to 10000 | 1000 to 10000
CC(C)(C)NC1CCN(c2ccc(-c3cc4oc(CC#N)nc4cc3O)nn2)C1 (centres unmarked) [Compound 820] | < 100 | 1000 to 10000 | 1000 to 10000 | 100 to 1000 | 100 to 1000 | 1000 to 10000 | 100 to 1000 | 100 to 1000
Cc1nc2ccc(-c3ccc(N4CCC(NC(C)(C)C)C4)nn3)nc2o1 (centres unmarked) [Compound 832] | < 100 | 100 to 1000 | 100 to 1000 | < 100 | < 100 | 100 to 1000 | 100 to 1000 | 100 to 1000
Cc1nc2cc(O)c(-c3ccc(N4CCC(NC(C)(C)C(C)(C)C)C4)nn3)cc2o1 (centres unmarked) [Compound 835] | 100 to 1000 | 100 to 1000 | 100 to 1000 | 100 to 1000 | 100 to 1000 | 100 to 1000 | 100 to 1000 | 100 to 1000
Cc1nc2cc(O)c(-c3ccc(N4CCC(C)(NC(C)(C)C)C4)nn3)cc2o1 (centres unmarked) [Compound 837] | 100 to 1000 | 1000 to 10000 | 1000 to 10000 | 100 to 1000 | 100 to 1000 | 1000 to 10000 | 1000 to 10000 | 1000 to 10000
Cc1nc2c(F)c(O)c(-c3ccc(N4CC[C@H](NC(C)(C)C)C4)nn3)cc2o1 [Compound 843] | > 10000 | > 10000 | > 10000 | > 10000 | > 10000 | > 10000 | > 10000 | > 10000
CC(C)(C)NC1CCN(c2ccc(-c3cc4ccncc4cc3O)nn2)C1 (centres unmarked) [Compound 845] | < 100 | 100 to 1000 | 100 to 1000 | < 100 | < 100 | 100 to 1000 | 100 to 1000 | < 100
Cc1nc2cc(O)c(-c3ccc(N4CCC(NC(C)(C)C(C)C)C4)nn3)cc2o1 (centres unmarked) [Compound 862] | 100 to 1000 | 1000 to 10000 | 1000 to 10000 | 100 to 1000 | 100 to 1000 | 1000 to 10000 | 1000 to 10000 | 100 to 1000
Cn1ccc2cc(O)c(-c3cnc(N4CCC(NC(C)(C)C)C4)nn3)cc2c1=O (centres unmarked) [Compound 869] | > 10000 | > 10000 | > 10000 | > 10000 | > 10000 | > 10000 | > 10000 | > 10000
Cn1ccc2cc(O)c(-c3ccc(N4CC[C@H](NC(C)(C)C)C4)nn3)cc2c1=O [Compound 873] | 100 to 1000 | > 10000 | > 10000 | 100 to 1000 | 100 to 1000 | 1000 to 10000 | 1000 to 10000 | 1000 to 10000

Continued, in another order:

IC50 (SMN2 mRNA) [nM] | IC50 (MYB mRNA; [2]) [nM] | IC50 (MYB mRNA; [3]) [nM] | IC50 (HTT mRNA; [4]) [nM] | IC50 (HTT mRNA; [5]) [nM] | IC50 (Target C mRNA) [nM] | Structure (SMILES) | AC50 (MYB mRNA; [1]) [nM] | AC50 (HTT mRNA; [1]) [nM]
100 to 1000 | 1000 to 10000 | 1000 to 10000 | 100 to 1000 | 100 to 1000 | 1000 to 10000 | Cc1nc2cc(O)c(-c3ccc(N4CC[C@H](NC(C)(C)C)C4)nn3)cc2o1 [Compound 813] | 1000 to 10000 | 1000 to 10000
> 10000 | > 10000 | > 10000 | > 10000 | > 10000 | > 10000 | Cc1nc2cc(O)c(-c3ccc(N4CCC(NC5CCC5)C4)nn3)cc2o1 (centres unmarked) [Compound 830] | > 10000 | > 10000
100 to 1000 | 1000 to 10000 | 1000 to 10000 | 100 to 1000 | 100 to 1000 | 1000 to 10000 | CCC(C)(C)NC1CCN(c2ccc(-c3cc4oc(C)nc4cc3O)nn2)C1 (centres unmarked) [Compound 836] | 1000 to 10000 | 1000 to 10000
100 to 1000 | 1000 to 10000 | 1000 to 10000 | 100 to 1000 | 100 to 1000 | 1000 to 10000 | Cc1nc2cc(O)c(-c3cnc(N4CC[C@@H](N(C)C(C)(C)C)C4)nn3)cc2o1 [Compound 856] | 1000 to 10000 | 1000 to 10000
< 100 | 100 to 1000 | 100 to 1000 | < 100 | < 100 | 100 to 1000 | Cc1nc2cc(O)c(-c3cnc(N4CC[C@H](N(C)C(C)(C)C)C4)nn3)cc2o1 [Compound 857] | 100 to 1000 | 100 to 1000
< 100 | 100 to 1000 | 100 to 1000 | < 100 | < 100 | 100 to 1000 | Cc1nc2cc(O)c(-c3ccc(N4CC[C@H](N(C)C(C)(C)C)C4)nn3)cc2o1 [Compound 858] | 100 to 1000 | < 100
< 100 | 1000 to 10000 | 1000 to 10000 | 1000 to 10000 | 1000 to 10000 | 1000 to 10000 | Cc1nc2cc(O)c(-c3ccc(N4CC[C@@H](N(C)C(C)(C)C)C4)nn3)cc2o1 [Compound 859] | 1000 to 10000 | 1000 to 10000
1000 to 10000 | 1000 to 10000 | 1000 to 10000 | 1000 to 10000 | 1000 to 10000 | 1000 to 10000 | Cc1nc2cc(O)c(-c3cnc(N4C[C@@H](C)N[C@@H](C5CC5)C4)nn3)cc2o1 [Compound 870] | 1000 to 10000 | 1000 to 10000
< 100 | 100 to 1000 | 100 to 1000 | < 100 | < 100 | 100 to 1000 | Cc1nc2cc(O)c(-c3ccc(N4CC[C@@H](NC(C)(C)C(C)C)C4)nn3)cc2o1 [Compound 874] | 100 to 1000 | < 100
< 100 | 100 to 1000 | 100 to 1000 | < 100 | < 100 | 100 to 1000 | Cc1nc2cc(O)c(-c3ccc(N4CC[C@H](NC(C)(C)C(C)C)C4)nn3)cc2o1 [Compound 875] | 100 to 1000 | < 100
